The kinase profiling compilation of Christmann-Franck et al. (2016)

Columns and labels:
Assay in all cases: radiometric filter-binding kinase assay, Kinase HotSpot
Conditions in all cases: compound 0.5 µM; ATP 10 µM
TSSK2 (human) = TSSK2 (human) (UniProt Q96PF2)
CSNK1E (human) = CSNK1E (human) (UniProt P49674)
HCK (human) = HCK (human) (UniProt P08631)
FGFR2 (human) = FGFR2 (human) (UniProt P21802)
NEK2 (human) = NEK2 (human) (UniProt P51955)
NUAK2 (human) = NUAK2 (human) (UniProt Q9H093)
MKNK2 (human) = MKNK2 (human) (UniProt Q9HBH9)
VRK1 (human) = VRK1 (human) (UniProt Q99986)
EPHB1 (human) = EPHB1 (human) (UniProt P54762)
MAPK9 (human) = MAPK9 (human) (UniProt P45984)
FGFR4 (human) = FGFR4 (human) (UniProt P22455)
AKT2 (human) = AKT2 (human) (UniProt P31751)
ITK (human) = ITK (human) (UniProt Q08881)
DDR2 (human) = DDR2 (human) (UniProt Q16832)
BMX (human) = BMX (human) (UniProt P51813)
SRPK3 (human) = SRPK3 (human) (UniProt Q9UPE1)
MAPK8 (human) = MAPK8 (human) (UniProt P45983)
HIPK3 (human) = HIPK3 (human) (UniProt Q9H422)
SYK (human) = SYK (human) (UniProt P43405)
DMPK (human) = DMPK (human) (UniProt Q09013)
TAOK2 (human) = TAOK2 (human) (UniProt Q9UL54)
MYLK2 (human) = MYLK2 (human) (UniProt Q9H1R3)
DCLK2 (human) = DCLK2 (human) (UniProt Q8N568)
IRAK1 (human) = IRAK1 (human) (UniProt P51617)
SRC (human) = SRC (human) (UniProt P12931)
CDK4 CCND1 (human) = CDK4 CCND1 (human) (UniProt P24385+P11802)
PRKCD (human) = PRKCD (human) (UniProt Q05655)
BLK (human) = BLK (human) (UniProt P51451)
CDK4 CCND3 (human) = CDK4 CCND3 (human) (UniProt P30281+P11802)
PTK6 (human) = PTK6 (human) (UniProt Q13882)
PLK2 (human) = PLK2 (human) (UniProt Q9NYY3)
EPHA8 (human) = EPHA8 (human) (UniProt P29322)
MAPKAPK2 (human) = MAPKAPK2 (human) (UniProt P49137)
PRKD2 (human) = PRKD2 (human) (UniProt Q9BZL6)
BTK (human) = BTK (human) (UniProt Q06187)
STK3 (human) = STK3 (human) (UniProt Q13188)
MAPK12 (human) = MAPK12 (human) (UniProt P53778)
CDK7 CCNH MNAT1 (human) = CDK7 CCNH MNAT1 (human) (UniProt P50613+P51948+P51946)
PRKCB2 (human) = PRKCB2 (human) (UniProt P05771)
STK10 (human) = STK10 (human) (UniProt O94804)
STK24 (human) = STK24 (human) (UniProt Q9Y6E0)
IGF1R (human) = IGF1R (human) (UniProt P08069)

Chain of MAPK12 (human) (P53778 whole entry, looked up): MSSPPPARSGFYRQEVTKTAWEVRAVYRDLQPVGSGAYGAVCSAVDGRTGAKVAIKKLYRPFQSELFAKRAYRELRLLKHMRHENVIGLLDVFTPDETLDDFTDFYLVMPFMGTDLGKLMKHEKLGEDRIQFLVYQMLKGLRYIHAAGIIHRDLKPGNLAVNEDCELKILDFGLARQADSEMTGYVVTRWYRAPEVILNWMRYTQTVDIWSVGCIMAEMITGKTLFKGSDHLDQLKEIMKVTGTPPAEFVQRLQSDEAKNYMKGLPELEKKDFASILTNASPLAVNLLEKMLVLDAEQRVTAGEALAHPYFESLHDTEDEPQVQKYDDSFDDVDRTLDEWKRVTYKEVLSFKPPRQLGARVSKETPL
Chain of MKNK2 (human) (Q9HBH9 whole entry, looked up): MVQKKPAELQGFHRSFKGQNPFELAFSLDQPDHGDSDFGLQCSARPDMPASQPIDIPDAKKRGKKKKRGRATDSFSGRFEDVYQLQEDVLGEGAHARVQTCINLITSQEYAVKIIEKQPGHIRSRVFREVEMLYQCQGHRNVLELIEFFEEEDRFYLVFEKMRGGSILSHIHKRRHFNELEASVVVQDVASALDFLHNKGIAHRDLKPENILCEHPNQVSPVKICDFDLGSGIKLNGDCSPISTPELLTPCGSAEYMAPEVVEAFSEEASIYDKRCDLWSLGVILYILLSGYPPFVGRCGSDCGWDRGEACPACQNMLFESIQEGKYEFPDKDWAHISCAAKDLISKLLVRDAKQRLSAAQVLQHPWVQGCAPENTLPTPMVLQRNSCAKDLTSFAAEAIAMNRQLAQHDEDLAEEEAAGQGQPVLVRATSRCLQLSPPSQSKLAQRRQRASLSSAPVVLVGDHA
Chain of STK3 (human) (Q13188 whole entry, looked up): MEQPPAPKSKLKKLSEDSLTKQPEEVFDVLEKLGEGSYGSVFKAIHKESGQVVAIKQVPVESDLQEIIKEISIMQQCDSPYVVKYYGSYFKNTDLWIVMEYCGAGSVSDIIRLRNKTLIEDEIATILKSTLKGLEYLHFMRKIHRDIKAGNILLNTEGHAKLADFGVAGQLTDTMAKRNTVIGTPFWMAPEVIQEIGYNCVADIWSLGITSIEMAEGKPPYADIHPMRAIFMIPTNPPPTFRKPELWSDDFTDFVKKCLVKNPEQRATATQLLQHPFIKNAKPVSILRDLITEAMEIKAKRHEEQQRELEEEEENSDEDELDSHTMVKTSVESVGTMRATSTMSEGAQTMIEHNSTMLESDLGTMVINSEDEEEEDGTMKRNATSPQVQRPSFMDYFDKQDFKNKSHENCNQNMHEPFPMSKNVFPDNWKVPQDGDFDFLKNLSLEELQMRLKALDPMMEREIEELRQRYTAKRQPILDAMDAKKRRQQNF
Chain of AKT2 (human) (P31751 whole entry, looked up): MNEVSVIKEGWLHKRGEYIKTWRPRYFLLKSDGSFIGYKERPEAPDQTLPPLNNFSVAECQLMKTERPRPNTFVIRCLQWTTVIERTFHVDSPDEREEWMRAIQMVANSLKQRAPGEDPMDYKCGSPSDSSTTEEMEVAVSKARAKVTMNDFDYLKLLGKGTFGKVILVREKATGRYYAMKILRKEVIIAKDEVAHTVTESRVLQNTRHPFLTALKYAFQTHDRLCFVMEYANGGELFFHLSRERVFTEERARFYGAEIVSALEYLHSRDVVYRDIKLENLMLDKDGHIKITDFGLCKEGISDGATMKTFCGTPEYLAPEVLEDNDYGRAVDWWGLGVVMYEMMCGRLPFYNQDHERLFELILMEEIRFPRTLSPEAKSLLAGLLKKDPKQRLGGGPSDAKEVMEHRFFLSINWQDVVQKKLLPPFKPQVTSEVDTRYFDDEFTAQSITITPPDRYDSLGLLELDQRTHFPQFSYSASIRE
Chain of BMX (human) (P51813 whole entry, looked up): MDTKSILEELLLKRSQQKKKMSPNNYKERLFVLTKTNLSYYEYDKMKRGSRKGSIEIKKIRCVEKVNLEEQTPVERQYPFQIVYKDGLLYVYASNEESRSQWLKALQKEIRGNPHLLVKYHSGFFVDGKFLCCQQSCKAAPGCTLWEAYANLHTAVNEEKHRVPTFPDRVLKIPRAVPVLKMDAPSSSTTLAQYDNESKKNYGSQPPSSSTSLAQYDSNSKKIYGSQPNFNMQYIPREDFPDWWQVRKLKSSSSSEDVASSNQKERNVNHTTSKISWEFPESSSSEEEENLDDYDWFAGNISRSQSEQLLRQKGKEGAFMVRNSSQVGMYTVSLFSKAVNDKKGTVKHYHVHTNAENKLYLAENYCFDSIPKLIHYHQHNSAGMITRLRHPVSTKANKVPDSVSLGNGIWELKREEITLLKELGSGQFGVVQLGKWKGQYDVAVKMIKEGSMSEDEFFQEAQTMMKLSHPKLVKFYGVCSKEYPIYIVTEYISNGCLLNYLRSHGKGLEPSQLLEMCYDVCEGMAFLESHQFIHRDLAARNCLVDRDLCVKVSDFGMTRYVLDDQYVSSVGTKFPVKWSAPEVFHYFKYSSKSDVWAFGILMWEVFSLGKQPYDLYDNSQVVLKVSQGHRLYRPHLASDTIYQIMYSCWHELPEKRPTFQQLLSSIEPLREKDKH
Chain of TAOK2 (human) (Q9UL54 whole entry, looked up): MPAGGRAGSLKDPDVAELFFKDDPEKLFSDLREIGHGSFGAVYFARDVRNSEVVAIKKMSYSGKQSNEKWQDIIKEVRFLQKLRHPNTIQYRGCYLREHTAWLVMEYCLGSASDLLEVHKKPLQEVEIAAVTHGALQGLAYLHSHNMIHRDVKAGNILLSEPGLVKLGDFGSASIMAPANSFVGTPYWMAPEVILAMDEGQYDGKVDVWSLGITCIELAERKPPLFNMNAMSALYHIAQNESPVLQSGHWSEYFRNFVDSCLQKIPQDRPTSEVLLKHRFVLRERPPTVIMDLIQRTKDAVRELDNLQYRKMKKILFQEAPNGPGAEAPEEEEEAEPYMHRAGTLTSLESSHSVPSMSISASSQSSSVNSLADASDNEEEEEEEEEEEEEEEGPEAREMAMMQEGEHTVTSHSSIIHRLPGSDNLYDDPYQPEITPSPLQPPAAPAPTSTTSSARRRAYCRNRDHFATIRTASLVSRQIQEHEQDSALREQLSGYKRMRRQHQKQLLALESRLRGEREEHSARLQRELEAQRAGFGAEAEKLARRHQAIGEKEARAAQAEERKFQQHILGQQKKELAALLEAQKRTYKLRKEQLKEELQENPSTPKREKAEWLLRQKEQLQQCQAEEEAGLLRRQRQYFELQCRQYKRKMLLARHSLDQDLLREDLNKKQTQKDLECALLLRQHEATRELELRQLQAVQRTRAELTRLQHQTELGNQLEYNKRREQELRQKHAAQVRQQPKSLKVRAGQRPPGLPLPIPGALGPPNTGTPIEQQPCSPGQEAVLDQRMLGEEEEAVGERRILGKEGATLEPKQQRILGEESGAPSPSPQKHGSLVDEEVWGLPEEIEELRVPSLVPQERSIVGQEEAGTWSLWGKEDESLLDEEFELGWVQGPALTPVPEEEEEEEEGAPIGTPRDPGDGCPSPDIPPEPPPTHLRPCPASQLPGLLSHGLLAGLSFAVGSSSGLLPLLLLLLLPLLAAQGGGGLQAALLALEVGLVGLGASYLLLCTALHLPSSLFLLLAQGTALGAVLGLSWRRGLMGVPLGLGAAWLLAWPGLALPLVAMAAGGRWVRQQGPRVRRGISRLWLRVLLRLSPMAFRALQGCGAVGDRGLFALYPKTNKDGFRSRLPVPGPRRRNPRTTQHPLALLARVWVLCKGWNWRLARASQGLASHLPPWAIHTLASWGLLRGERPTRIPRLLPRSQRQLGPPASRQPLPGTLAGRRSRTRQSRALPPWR
Chain of TSSK2 (human) (Q96PF2 whole entry, looked up): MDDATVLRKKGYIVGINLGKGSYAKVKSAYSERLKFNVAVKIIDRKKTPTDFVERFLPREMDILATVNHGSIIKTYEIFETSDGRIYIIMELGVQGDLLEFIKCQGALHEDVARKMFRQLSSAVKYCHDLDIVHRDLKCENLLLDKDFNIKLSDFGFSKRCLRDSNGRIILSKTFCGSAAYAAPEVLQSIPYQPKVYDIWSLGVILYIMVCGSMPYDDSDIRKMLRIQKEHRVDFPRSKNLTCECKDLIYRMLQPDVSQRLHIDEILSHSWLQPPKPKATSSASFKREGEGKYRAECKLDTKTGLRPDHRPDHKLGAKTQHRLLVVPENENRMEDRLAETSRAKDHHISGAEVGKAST
Chain of PRKD2 (human) (Q9BZL6 whole entry, looked up): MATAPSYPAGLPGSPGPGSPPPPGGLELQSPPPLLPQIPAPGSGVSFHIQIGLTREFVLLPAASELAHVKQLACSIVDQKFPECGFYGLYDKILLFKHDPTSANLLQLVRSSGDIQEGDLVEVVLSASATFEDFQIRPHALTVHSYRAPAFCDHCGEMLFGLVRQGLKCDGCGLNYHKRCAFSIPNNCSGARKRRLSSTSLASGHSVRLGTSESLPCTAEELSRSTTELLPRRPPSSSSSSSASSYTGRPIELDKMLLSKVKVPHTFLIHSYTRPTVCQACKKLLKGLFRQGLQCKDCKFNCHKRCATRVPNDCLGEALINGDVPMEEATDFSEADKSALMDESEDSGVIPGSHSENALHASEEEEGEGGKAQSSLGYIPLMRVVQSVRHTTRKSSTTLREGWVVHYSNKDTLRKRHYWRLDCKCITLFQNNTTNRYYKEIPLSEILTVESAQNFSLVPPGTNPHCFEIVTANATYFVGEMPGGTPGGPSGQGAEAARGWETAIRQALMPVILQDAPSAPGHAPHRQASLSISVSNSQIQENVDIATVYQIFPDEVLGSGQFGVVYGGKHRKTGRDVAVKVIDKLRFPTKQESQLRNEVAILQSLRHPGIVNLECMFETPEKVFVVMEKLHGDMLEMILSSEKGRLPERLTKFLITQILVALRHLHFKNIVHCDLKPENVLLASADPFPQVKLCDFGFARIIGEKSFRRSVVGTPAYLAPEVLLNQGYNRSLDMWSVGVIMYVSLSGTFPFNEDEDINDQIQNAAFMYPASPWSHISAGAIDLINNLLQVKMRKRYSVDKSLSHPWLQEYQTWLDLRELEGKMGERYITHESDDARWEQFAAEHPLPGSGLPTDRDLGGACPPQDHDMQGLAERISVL

N#Cc1c(NC(=O)c2cccc3ccccc23)sc2c1CCCC2
residual activity (TSSK2 (human)): 104%
residual activity (CSNK1E (human)): 102%
residual activity (HCK (human)): 96.5%
residual activity (FGFR2 (human)): 110%
residual activity (NEK2 (human)): 88.1%
residual activity (NUAK2 (human)): 76.7%
residual activity (MKNK2 (human)): 106%
residual activity (VRK1 (human)): 87.2%
residual activity (EPHB1 (human)): 95.9%
residual activity (MAPK9 (human)): 33.9%
residual activity (FGFR4 (human)): 109%
residual activity (AKT2 (human)): 105%
residual activity (ITK (human)): 101%
residual activity (DDR2 (human)): 95.8%
residual activity (BMX (human)): 101%
residual activity (SRPK3 (human)): 95.7%
residual activity (MAPK8 (human)): 87.3%
residual activity (HIPK3 (human)): 116%
residual activity (SYK (human)): 97.6%
residual activity (DMPK (human)): 109%
residual activity (TAOK2 (human)): 99.8%
residual activity (MYLK2 (human)): 101%
residual activity (DCLK2 (human)): 96.5%
residual activity (IRAK1 (human)): 104%
residual activity (SRC (human)): 93.5%
residual activity (CDK4 CCND1 (human)): 98.7%
residual activity (PRKCD (human)): 94.1%
residual activity (BLK (human)): 105%
residual activity (CDK4 CCND3 (human)): 97.1%
residual activity (PTK6 (human)): 89.8%
residual activity (PLK2 (human)): 101%
residual activity (EPHA8 (human)): 104%
residual activity (MAPKAPK2 (human)): 103%
residual activity (PRKD2 (human)): 126%
residual activity (BTK (human)): 95%
residual activity (STK3 (human)): 111%
residual activity (MAPK12 (human)): 95.6%
residual activity (CDK7 CCNH MNAT1 (human)): 101%
residual activity (PRKCB2 (human)): 104%
residual activity (STK10 (human)): 97.7%
residual activity (STK24 (human)): 90.3%

COc1cc2c(Nc3ccc(Br)cc3F)ncnc2cc1OCC1CCN(C)CC1
residual activity (TSSK2 (human)): 95.9%
residual activity (FGFR2 (human)): 38.4%
residual activity (NEK2 (human)): 103%
residual activity (NUAK2 (human)): 100%
residual activity (MKNK2 (human)): 86.9%
residual activity (VRK1 (human)): 98.9%
residual activity (EPHB1 (human)): 27.8%
residual activity (MAPK9 (human)): 96.4%
residual activity (FGFR4 (human)): 90%
residual activity (AKT2 (human)): 110%
residual activity (ITK (human)): 101%
residual activity (DDR2 (human)): 68%
residual activity (BMX (human)): 88.4%
residual activity (SRPK3 (human)): 102%
residual activity (MAPK8 (human)): 93.7%
residual activity (HIPK3 (human)): 99.5%
residual activity (SYK (human)): 101%
residual activity (DMPK (human)): 94.6%
residual activity (TAOK2 (human)): 104%
residual activity (MYLK2 (human)): 97.1%
residual activity (DCLK2 (human)): 104%
residual activity (IRAK1 (human)): 87.7%
residual activity (SRC (human)): 11%
residual activity (CDK4 CCND1 (human)): 94.8%
residual activity (PRKCD (human)): 103%
residual activity (BLK (human)): 33.8%
residual activity (CDK4 CCND3 (human)): 101%
residual activity (PTK6 (human)): 7.28%
residual activity (PLK2 (human)): 103%
residual activity (IGF1R (human)): 94.6%
residual activity (EPHA8 (human)): 33.9%
residual activity (MAPKAPK2 (human)): 99.5%
residual activity (PRKD2 (human)): 92%
residual activity (BTK (human)): 17.6%
residual activity (STK3 (human)): 97.5%
residual activity (MAPK12 (human)): 92.6%
residual activity (CDK7 CCNH MNAT1 (human)): 102%
residual activity (PRKCB2 (human)): 91.6%
residual activity (STK10 (human)): 21.3%
residual activity (STK24 (human)): 104%

O=C(c1ccccc1)c1ccc(N2CCOCC2)cc1O
residual activity (TSSK2 (human)): 104%
residual activity (CSNK1E (human)): 97.7%
residual activity (HCK (human)): 114%
residual activity (FGFR2 (human)): 99.1%
residual activity (NEK2 (human)): 101%
residual activity (NUAK2 (human)): 111%
residual activity (MKNK2 (human)): 90.6%
residual activity (VRK1 (human)): 89.7%
residual activity (EPHB1 (human)): 104%
residual activity (MAPK9 (human)): 98.9%
residual activity (FGFR4 (human)): 106%
residual activity (AKT2 (human)): 97.9%
residual activity (ITK (human)): 99.5%
residual activity (DDR2 (human)): 103%
residual activity (BMX (human)): 90.4%
residual activity (SRPK3 (human)): 103%
residual activity (MAPK8 (human)): 99.5%
residual activity (HIPK3 (human)): 98.1%
residual activity (SYK (human)): 96.6%
residual activity (DMPK (human)): 98.9%
residual activity (TAOK2 (human)): 107%
residual activity (MYLK2 (human)): 99.1%
residual activity (DCLK2 (human)): 103%
residual activity (IRAK1 (human)): 103%
residual activity (SRC (human)): 97.8%
residual activity (CDK4 CCND1 (human)): 96.1%
residual activity (PRKCD (human)): 98.8%
residual activity (BLK (human)): 102%
residual activity (CDK4 CCND3 (human)): 96.2%
residual activity (PTK6 (human)): 98.2%
residual activity (PLK2 (human)): 111%
residual activity (IGF1R (human)): 106%
residual activity (MAPKAPK2 (human)): 102%
residual activity (PRKD2 (human)): 99.1%
residual activity (BTK (human)): 103%
residual activity (STK3 (human)): 100%
residual activity (MAPK12 (human)): 100%
residual activity (CDK7 CCNH MNAT1 (human)): 106%
residual activity (PRKCB2 (human)): 99.2%
residual activity (STK10 (human)): 97.9%
residual activity (STK24 (human)): 89%
